Patent publication US20260014285A1, “POLYPEPTIDE COMPOUND, AND COMPLEX AND USE THEREOF” (HANGZHOU HEALTHYTIDE BIOTECHNOLOGY CO., LTD., priority 2022, published 2026)
Non-standard residues stand in square brackets, D forms with d. Residues, ends and D or L forms follow the SMILES beside them. ξ: configuration not given here. *: point of attachment. DOTA = O=C(O)CN1CCN(CC(=O)O)CCN(CC(=O)*)CCN(CC(=O)O)CC1; PEG4 = NCCOCCOCCOCCOCCC(=O)O; Pip = O=C(O)[C@@H]1CCCCN1; ξN = NC(=O)CC(N)C(=O)O; Aib = CC(C)(N)C(=O)O; AEA = NCCOCC(=O)O

Assays:
integrin α5β1 = integrin α5β1 (Homo sapiens, UniProt P05556+P08648); test: Target affinity test by surface plasmon resonance (SPR), integrin α5β1; type: binding; conditions: for affinity constant (KD) to integrin α5β1, in words: SPR; for Kd: SPR (Biacore T200), CM5 chip, 25° C., KD=Kd/Ka
Protocol: (§1) Surface plasmon resonance (SPR) technique was used to test the affinity of the compound in the examples to the target protein integrin α5β1. Specifically, the following operations were performed.
(§2) The affinity constants (KD) of the compounds to the target proteins integrin α5β1, αvβ3, and αvβ5 were calculated according to the formula of KD=Kd/Ka (the lower the value of KD, the higher the affinity of the compounds of the examples to the target protein integrin α5β1).

integrin αvβ3 = integrin αvβ3 (Homo sapiens, UniProt P05106+P06756); test: Target affinity test by surface plasmon resonance (SPR), integrin αvβ3; type: binding; conditions: for Kd: SPR (Biacore T200), CM5 chip, 25° C., KD=Kd/Ka; for affinity constant (KD) to integrin αvβ3, in words: SPR
Protocol: as §1, §2

in vivo [1] = test: in vivo; set-up: species or system mice; conditions: naked (nude), mouse, iv, 100 uCi, total radioactivity
Protocol: (§3) For example, labeling TM4 with radioactive ^68Ga: An aqueous solution of TM4 (DOTA-Asn-Asp-Val-Ile-Asn-OH) (20 μg) was added to the prepared ^68GaCl3 solution, and the pH was adjusted to 3-5 with aqueous sodium acetate and acetic acid. This system was reacted at 70-95° C. for 15 min, and then purified after the reaction was completed to obtain a labeled solution of ^68Ga-DOTA-Asn-Asp-Val-Ile-Asn-OH (^68Ga-TM4).
(§4) All compounds were labeled with ^68Ga in the same way as described above.
Approximately 100 μCi of ^68Ga injection was injected into the tail vein of naked mice inoculated with SKOV3.

in vivo [2] = test: in vivo; set-up: species or system mice; conditions: M-NSG, mouse, iv, 100 uCi, total radioactivity
Protocol: as §3, §4
Approximately 100 μCi of ^68Ga injection was injected into the tail vein of M-NSG mice inoculated with H1975. […] Table 6 was obtained by image post-processing.

in vivo [3] = test: in vivo; set-up: species or system mice; conditions: naked (nude), mouse, iv, 100 uCi, total radioactivity; remark: listed apart in the source
Protocol: as §3, §4
Approximately 100 μCi of ^68Ga injection was injected into the tail vein of naked mice inoculated with MC38.

integrin α5β1, sequence (P08648 42-995 limits assumed): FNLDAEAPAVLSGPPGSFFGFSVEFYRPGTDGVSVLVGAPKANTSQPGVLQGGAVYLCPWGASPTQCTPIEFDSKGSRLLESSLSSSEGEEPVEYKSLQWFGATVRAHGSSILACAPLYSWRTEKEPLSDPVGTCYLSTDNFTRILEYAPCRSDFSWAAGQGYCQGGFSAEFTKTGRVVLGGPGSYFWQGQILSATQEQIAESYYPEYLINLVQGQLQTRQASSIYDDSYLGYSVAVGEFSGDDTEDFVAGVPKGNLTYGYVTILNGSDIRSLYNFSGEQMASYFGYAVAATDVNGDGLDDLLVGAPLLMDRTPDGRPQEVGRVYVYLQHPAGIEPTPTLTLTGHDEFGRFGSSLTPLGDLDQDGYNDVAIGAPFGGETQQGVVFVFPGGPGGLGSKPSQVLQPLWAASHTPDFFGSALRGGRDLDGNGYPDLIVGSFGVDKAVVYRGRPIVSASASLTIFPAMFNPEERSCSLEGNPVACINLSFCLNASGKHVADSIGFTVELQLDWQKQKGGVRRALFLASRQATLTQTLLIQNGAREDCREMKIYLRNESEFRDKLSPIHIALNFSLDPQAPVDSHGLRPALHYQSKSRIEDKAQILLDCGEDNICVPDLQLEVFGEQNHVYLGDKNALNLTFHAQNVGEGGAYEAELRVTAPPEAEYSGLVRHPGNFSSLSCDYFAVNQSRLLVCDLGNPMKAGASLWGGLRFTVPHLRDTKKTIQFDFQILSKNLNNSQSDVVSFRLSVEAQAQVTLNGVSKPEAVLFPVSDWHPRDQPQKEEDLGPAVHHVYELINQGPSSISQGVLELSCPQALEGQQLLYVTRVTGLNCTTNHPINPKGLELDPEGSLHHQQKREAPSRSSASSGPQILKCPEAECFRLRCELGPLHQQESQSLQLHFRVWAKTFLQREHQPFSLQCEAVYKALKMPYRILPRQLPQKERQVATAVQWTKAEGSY
integrin α5β1, sequence (P05556 21-728 limits assumed): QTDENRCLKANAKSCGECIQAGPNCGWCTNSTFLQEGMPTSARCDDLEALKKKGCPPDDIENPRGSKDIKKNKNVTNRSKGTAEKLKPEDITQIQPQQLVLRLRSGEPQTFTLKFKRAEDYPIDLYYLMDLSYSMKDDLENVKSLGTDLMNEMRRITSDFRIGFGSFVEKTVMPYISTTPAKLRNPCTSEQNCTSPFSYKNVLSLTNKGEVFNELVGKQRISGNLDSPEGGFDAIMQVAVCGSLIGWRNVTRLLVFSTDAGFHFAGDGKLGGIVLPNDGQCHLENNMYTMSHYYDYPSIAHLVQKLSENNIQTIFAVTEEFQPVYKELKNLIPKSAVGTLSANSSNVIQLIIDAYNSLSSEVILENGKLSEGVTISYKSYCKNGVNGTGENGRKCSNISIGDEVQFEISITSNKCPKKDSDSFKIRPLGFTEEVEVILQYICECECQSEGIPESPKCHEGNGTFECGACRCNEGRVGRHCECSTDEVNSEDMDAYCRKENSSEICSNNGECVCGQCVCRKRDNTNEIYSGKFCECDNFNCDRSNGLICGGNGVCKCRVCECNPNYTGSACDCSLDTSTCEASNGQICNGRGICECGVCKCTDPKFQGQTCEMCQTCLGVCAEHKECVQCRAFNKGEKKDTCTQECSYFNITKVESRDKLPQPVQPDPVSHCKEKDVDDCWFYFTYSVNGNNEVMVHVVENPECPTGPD
integrin αvβ3, sequence (P06756 31-992 limits assumed): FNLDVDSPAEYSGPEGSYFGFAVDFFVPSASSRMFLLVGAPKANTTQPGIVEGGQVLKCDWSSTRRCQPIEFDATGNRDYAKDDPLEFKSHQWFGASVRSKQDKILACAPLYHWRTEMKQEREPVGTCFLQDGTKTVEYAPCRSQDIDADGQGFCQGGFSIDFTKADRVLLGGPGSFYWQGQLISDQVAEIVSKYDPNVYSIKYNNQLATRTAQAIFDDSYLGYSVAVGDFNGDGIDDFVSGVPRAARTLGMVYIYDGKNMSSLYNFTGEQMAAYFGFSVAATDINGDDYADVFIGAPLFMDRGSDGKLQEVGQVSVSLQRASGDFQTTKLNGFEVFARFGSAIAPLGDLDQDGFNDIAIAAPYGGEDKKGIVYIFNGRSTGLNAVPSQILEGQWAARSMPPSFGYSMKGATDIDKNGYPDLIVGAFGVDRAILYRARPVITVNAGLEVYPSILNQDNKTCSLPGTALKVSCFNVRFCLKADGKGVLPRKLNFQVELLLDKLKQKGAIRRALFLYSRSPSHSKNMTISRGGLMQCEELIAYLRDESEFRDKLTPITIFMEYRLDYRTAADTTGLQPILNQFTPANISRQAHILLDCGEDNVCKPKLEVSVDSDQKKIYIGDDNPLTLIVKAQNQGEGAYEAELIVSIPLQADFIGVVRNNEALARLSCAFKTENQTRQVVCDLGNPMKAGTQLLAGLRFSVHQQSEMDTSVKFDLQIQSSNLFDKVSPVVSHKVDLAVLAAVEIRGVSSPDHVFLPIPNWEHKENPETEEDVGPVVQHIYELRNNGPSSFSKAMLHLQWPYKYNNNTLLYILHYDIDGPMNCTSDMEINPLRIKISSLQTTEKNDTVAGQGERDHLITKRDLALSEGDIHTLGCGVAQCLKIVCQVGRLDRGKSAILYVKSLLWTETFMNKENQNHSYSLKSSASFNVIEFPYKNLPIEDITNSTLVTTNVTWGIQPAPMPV
integrin αvβ3, sequence (P05106 27-718 limits assumed): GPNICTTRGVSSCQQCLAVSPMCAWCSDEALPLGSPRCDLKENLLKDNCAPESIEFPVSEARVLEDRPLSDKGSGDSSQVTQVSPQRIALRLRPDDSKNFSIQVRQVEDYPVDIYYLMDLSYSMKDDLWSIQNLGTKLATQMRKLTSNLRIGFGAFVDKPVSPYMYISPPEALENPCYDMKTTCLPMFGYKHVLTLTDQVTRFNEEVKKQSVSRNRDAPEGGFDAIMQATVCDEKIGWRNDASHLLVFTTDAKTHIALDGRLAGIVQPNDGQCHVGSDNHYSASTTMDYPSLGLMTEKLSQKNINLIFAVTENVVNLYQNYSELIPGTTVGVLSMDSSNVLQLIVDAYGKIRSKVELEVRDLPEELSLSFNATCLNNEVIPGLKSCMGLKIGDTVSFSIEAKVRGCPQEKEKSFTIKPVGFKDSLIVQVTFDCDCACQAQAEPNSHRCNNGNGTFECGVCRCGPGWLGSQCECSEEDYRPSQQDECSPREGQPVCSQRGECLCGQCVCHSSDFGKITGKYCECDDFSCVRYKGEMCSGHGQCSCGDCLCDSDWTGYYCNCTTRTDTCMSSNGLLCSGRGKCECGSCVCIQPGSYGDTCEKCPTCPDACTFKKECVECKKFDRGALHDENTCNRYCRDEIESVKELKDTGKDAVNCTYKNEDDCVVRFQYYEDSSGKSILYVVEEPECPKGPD

For `CC[C@H](C)[C@H](NC(=O)C(C)(C)NC(=O)[C@H](CC(=O)O)NC(=O)[C@H](CC(N)=O)NC(=O)CN1CCN(CC(=O)O)CCN(CC(=O)O)CCN(CC(=O)O)CC1)C(=O)N[C@@H](CC(N)=O)C(=O)O` [TM11] ({DOTA}-ND[Aib]IN-OH), the “affinity constant (KD) to integrin α5β1, in words” value (integrin α5β1) was “better than nM level”, the Kd (integrin α5β1) was 0.0681 nM and the Kd (integrin αvβ3) was 190 nM.

For `CC[C@H](C)[C@H](NC(=O)[C@@H](NC(=O)[C@H](CC(=O)O)NC(=O)[C@H](CC(N)=O)NC(=O)CN1CCN(CC(=O)O)CCN(CC(=O)O)CCN(CC(=O)O)CC1)C(C)C)C(=O)N[C@@H](CC(N)=O)C(=O)O` [TM4, DOTA-Asn-Asp-Val-Ile-Asn-OH] ({DOTA}-NDVIN-OH), the Kd (integrin α5β1) was 16 nM, the “affinity constant (KD) to integrin αvβ3, in words” value (integrin αvβ3) was “nM level” and the Kd (integrin αvβ3) was 2.88 nM.

In the case of `CC[C@H](C)[C@H](NC(=O)[C@@H](NC(=O)[C@H](CC(=O)O)NC(=O)[C@H](CC(N)=O)NC(=O)COCCNC(=O)CN1CCN(CC(=O)O)CCN(CC(=O)O)CCN(CC(=O)O)CC1)C(C)C)C(=O)N[C@@H](CC(N)=O)C(=O)O` [TM13] ({DOTA-AEA}-NDVIN-OH), the Kd (integrin α5β1) is reported as 1450 nM, the “affinity constant (KD) to integrin αvβ3, in words” value (integrin αvβ3) is reported as “nM level” and the Kd (integrin αvβ3) is reported as 0.646 nM.

Work on `CC[C@H](C)[C@H](NC(=O)[C@@H](NC(=O)[C@H](CC(=O)O)NC(=O)[C@H](CC(N)=O)NC(=O)COCCNC(=O)CN1CCN(CC(=O)O)CCN(CC(=O)O)CCN(CC(=O)O)CC1)C(C)C)C(=O)N[C@@H](CC(N)=O)C(=O)O` [^68Ga-TM13, metal not drawn] ({DOTA-AEA}-NDVIN-OH) yielded a tissue uptake at 1 h (in vivo [1]; % ID/g Bladder) of 15.6 %ID/g, a tissue uptake at 1 h (in vivo [1]; % ID/g Bone) of 0.08 %ID/g and a tissue uptake at 1 h (in vivo [1]; % ID/g Brain) of 0.09 %ID/g. It also gave a tissue uptake at 1 h (in vivo [1]; % ID/g Heart) of 0.17 %ID/g, a tissue uptake at 1 h (in vivo [1]; % ID/g Intestine) of 0.85 %ID/g and a tissue uptake at 1 h (in vivo [1]; % ID/g Kidney) of 1.4 %ID/g. For the same molecule, the tissue uptake at 1 h (in vivo [1]; % ID/g Liver) was 0.3 %ID/g, the tissue uptake at 1 h (in vivo [1]; % ID/g Lung) was 0.12 %ID/g and the tissue uptake at 1 h (in vivo [1]; % ID/g Muscle) was 0.08 %ID/g. For the same molecule, the tissue uptake at 1 h (in vivo [1]; % ID/g Tumor) was 0.49 %ID/g, the tissue uptake at 1 h (in vivo [2]; % ID/g Bone) was 0.13 %ID/g and the tissue uptake at 1 h (in vivo [2]; % ID/g Brain) was 0.2 %ID/g. The tissue uptake at 1 h (in vivo [2]; % ID/g Heart) was 0.49 %ID/g, the tissue uptake at 1 h (in vivo [2]; % ID/g Intestine) was 0.6 %ID/g and the tissue uptake at 1 h (in vivo [2]; % ID/g Kidney) was 3.9 %ID/g. For the same molecule, the tissue uptake at 1 h (in vivo [2]; % ID/g Liver) was 0.5 %ID/g, the tissue uptake at 1 h (in vivo [2]; % ID/g Lung) was 0.32 %ID/g and the tissue uptake at 1 h (in vivo [2]; % ID/g Muscle) was 0.23 %ID/g. For the same molecule, the tissue uptake at 1 h (in vivo [2]; % ID/g Tumor) was 0.97 %ID/g, the tissue uptake at 1 h (in vivo [3]; % ID/g Bladder) was 7.3 %ID/g and the tissue uptake at 1 h (in vivo [3]; % ID/g Bone) was 0.05 %ID/g. It also gave a tissue uptake at 1 h (in vivo [3]; % ID/g Brain) of 0.09 %ID/g, a tissue uptake at 1 h (in vivo [3]; % ID/g Heart) of 0.11 %ID/g and a tissue uptake at 1 h (in vivo [3]; % ID/g Intestine) of 0.2 %ID/g. It also gave a tissue uptake at 1 h (in vivo [3]; % ID/g Kidney) of 1.6 %ID/g, a tissue uptake at 1 h (in vivo [3]; % ID/g Liver) of 0.16 %ID/g and a tissue uptake at 1 h (in vivo [3]; % ID/g Lung) of 0.08 %ID/g. For the same molecule, the tissue uptake at 1 h (in vivo [3]; % ID/g Muscle) was 0.05 %ID/g and the tissue uptake at 1 h (in vivo [3]; % ID/g Tumor) was 0.2 %ID/g.

With `CC[C@H](C)[C@H](NC(=O)[C@@H](NC(=O)[C@H](CC(=O)O)NC(=O)[C@H](CC(N)=O)NC(=O)[C@H](CC(=O)O)NC(=O)CNC(=O)[C@H](CCCNC(=N)N)NC(=O)CCOCCOCCOCCOCCNC(=O)CN1CCN(CC(=O)O)CCN(CC(=O)O)CCN(CC(=O)O)CC1)C(C)C)C(=O)N[C@@H](CC(N)=O)C(=O)O` [TM7] ({DOTA-PEG4}-RGDNDVIN-OH) the Kd (integrin α5β1) was 43.9 nM.

With `CC[C@H](C)[C@H](NC(=O)[C@@H]1CCCCN1C(=O)[C@H](CC(=O)O)NC(=O)[C@H](CC(N)=O)NC(=O)CN1CCN(CC(=O)O)CCN(CC(=O)O)CCN(CC(=O)O)CC1)C(=O)NC(CC(N)=O)C(=O)O` (stereo partly shown) [TM9] ({DOTA}-ND[Pip]I[ξN]-OH) the “affinity constant (KD) to integrin α5β1, in words” value (integrin α5β1) was “better than nM level”, the Kd (integrin α5β1) was 5.58 nM and the “affinity constant (KD) to integrin αvβ3, in words” value (integrin αvβ3) was “nM level”. For the same molecule, the Kd (integrin αvβ3) was 1.8 nM.

In the case of `CC[C@H](C)[C@H](NC(=O)[C@@H](NC(=O)[C@H](CC(=O)O)NC(=O)[C@H](CC(N)=O)NC(=O)CN1CCN(CC(=O)O)CCN(CC(=O)O)CCN(CC(=O)O)CC1)C(C)C)C(=O)N[C@@H](CC(N)=O)C(=O)O` [^68Ga-TM4, ^68Ga-DOTA-Asn-Asp-Val-Ile-Asn-OH, metal not drawn] ({DOTA}-NDVIN-OH), the tissue uptake at 1 h (in vivo [2]; % ID/g Bone) is reported as 0.3 %ID/g, the tissue uptake at 1 h (in vivo [2]; % ID/g Brain) is reported as 0.5 %ID/g and the tissue uptake at 1 h (in vivo [2]; % ID/g Heart) is reported as 0.96 %ID/g. The tissue uptake at 1 h (in vivo [2]; % ID/g Intestine) was 0.56 %ID/g, the tissue uptake at 1 h (in vivo [2]; % ID/g Kidney) was 4.8 %ID/g and the tissue uptake at 1 h (in vivo [2]; % ID/g Liver) was 0.79 %ID/g. For the same molecule, the tissue uptake at 1 h (in vivo [2]; % ID/g Lung) was 0.47 %ID/g, the tissue uptake at 1 h (in vivo [2]; % ID/g Muscle) was 0.36 %ID/g and the tissue uptake at 1 h (in vivo [2]; % ID/g Tumor) was 1.4 %ID/g.
